Like-named read-outs stand apart in the source and are kept apart here.
Tests used:
PI3K-alpha = PI3K-alpha (Homo sapiens, UniProt P42336); test: PI3K-alpha fluorescence polarization assay; format: biochemical; settings: read-out: PI3Kα Avg. IC50
PI3K-gamma = PI3K-gamma (Homo sapiens, UniProt P48736); test: PI3K-gamma fluorescence polarization assay; format: biochemical
Summary of the method: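 Reactions in 5 mM HEPES pH 7, 2.5 mM MgCl2, 25 μM ATP with 2.5 μM diC8-PI(4,5)P2 and 5 ng enzyme, 1 h at 25° C, then EDTA quench. Product detected by FP using GST-GRP1 PH domain (100 nM) and BODIPY-TMR-IP4 tracer (5 nM); final DMSO 0.8%.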

PI3K-gamma, sequence (P48736 whole entry, species assumed, the tested form may be a part): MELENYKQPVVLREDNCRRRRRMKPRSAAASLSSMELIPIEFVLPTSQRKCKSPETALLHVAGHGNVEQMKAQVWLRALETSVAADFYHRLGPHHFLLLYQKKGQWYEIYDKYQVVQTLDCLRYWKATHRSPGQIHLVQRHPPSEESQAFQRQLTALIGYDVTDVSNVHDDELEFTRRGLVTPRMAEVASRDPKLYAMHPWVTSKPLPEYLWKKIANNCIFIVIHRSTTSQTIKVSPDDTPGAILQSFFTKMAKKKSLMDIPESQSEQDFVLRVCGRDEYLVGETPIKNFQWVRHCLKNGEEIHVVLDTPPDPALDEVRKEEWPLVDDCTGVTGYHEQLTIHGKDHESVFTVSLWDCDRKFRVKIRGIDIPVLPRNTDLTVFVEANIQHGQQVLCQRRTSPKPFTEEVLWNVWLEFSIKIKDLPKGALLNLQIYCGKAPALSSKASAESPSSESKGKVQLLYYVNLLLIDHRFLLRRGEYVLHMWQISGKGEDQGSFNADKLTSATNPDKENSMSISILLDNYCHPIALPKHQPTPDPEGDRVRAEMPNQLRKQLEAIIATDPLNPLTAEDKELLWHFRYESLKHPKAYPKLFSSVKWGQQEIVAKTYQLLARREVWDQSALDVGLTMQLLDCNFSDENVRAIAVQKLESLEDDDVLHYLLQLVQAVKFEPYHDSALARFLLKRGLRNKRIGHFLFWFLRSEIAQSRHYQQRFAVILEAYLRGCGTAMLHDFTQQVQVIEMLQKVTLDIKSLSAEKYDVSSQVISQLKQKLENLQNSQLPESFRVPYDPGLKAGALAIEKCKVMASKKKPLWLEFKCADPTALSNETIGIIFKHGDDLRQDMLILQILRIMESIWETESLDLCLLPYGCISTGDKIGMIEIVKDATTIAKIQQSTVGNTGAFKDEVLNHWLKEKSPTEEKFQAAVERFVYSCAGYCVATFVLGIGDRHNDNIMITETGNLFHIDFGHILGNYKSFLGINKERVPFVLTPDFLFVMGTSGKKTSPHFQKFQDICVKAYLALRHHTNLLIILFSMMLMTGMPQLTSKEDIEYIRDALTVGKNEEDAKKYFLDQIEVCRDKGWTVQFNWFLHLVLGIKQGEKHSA
PI3K-alpha, sequence (P42336 whole entry, species assumed): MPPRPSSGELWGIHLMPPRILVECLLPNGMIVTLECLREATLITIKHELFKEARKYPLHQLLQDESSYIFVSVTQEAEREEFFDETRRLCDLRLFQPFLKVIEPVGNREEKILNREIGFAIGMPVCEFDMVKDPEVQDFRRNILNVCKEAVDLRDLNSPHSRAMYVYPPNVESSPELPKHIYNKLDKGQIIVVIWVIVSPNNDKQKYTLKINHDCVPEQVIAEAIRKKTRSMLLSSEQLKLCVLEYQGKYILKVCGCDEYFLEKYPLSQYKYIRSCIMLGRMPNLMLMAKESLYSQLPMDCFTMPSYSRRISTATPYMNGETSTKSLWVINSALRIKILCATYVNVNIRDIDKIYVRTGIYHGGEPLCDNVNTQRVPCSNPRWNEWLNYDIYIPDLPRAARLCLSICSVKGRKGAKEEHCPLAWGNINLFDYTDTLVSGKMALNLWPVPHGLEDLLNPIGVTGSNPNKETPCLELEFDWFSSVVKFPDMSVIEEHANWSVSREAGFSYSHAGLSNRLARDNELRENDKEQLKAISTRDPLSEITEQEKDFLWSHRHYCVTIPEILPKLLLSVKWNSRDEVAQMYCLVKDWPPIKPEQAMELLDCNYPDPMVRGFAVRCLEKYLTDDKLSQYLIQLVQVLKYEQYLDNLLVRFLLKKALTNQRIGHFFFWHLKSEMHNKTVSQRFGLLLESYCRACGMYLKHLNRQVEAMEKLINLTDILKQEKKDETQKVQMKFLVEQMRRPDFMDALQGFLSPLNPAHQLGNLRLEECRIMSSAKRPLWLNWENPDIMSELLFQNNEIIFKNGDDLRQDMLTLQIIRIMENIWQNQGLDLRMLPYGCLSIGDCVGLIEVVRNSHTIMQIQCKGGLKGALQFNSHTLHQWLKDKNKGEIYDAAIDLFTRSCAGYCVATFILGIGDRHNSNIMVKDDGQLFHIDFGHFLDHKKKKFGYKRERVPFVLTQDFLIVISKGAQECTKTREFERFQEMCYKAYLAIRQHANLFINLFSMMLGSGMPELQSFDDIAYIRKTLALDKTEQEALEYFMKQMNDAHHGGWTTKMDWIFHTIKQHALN
PI3K-alpha, sequence (P27986 whole entry partner, species assumed): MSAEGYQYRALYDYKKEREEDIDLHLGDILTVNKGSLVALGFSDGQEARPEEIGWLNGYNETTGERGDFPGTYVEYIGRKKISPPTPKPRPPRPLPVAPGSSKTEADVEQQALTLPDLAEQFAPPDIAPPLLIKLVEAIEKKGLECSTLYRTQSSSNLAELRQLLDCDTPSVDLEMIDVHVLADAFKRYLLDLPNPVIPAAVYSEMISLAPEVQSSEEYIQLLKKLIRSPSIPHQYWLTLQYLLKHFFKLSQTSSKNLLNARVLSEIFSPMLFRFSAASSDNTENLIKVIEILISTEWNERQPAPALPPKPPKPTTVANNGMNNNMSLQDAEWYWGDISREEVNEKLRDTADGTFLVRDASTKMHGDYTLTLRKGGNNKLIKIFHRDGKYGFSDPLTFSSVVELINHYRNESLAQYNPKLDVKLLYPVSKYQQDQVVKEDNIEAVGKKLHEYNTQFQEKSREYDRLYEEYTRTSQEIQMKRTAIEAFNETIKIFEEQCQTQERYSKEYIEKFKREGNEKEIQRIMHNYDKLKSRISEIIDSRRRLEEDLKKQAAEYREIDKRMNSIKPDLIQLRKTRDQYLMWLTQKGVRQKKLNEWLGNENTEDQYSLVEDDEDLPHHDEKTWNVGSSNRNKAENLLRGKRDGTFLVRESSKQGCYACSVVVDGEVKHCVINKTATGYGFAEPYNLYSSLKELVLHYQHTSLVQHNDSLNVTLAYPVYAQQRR

Compound	IC50 (PI3K-alpha) [nM]	IC50 (PI3K-gamma; PI3Kγ Avg. IC50) [nM]	IC50 (PI3K-gamma; read-out: PI3Kγ Avg. IC50) [nM]
Cn1cc(/C=C2\Oc3ccc(N)cc3C2=O)c2c(-c3ccccc3)cccc21 [Compound 534, (2Z)-5-amino-2-[(1-methyl-4-phenyl-1H-indol-3-yl)methylene]-1-benzofuran-3(2H)-one]	5880	476	
COc1cc(-c2ccncc2)c2[nH]cc(/C=C3\Oc4cc(O)ccc4C3=O)c2c1 [Compound 479, (2Z)-6-hydroxy-2-[(5-methoxy-7-pyridin-4-yl-1H-indol-3-yl)methylene]-1-benzofuran-3(2H)-one]	298	> 10000	
CNC(=O)Nc1ccc2c(c1)C(=O)/C(=C/c1c(C(=O)NC)[nH]c3ccc(OC)cc13)O2 [Compound 603, 5-methoxy-N-methyl-3-[(Z)-{5-[(methylcarbamoyl)amino]-3-oxo-1-benzofuran-2(3H)-ylidene}methyl]-1H-indole-2-carboxamide]	6.5	102	
CNC(=O)Nc1ccc2c(c1)C(=O)/C(=C/c1c(C#N)[nH]c3ccc(OC)cc13)O2 [Compound 604, 1-{(2Z)-2-[(2-cyano-5-methoxy-1H-indol-3-yl)methylidene]-3-oxo-2,3-dihydro-1-benzofuran-5-yl}-3-methylurea]	10.5	> 10000	
6,7-dihydroxy-2-{[5-methoxy-2-methyl-1-(4-morpholin-4-ylbutyl)-1H-indol-3-yl]methylene}-1-benzofuran-3(2H)-one [Example 133]	230		954

The next lines start with results.

IC50 (PI3K-alpha) [nM]	IC50 (PI3K-gamma; PI3Kγ Avg. IC50) [nM]	Compound	IC50 (PI3K-gamma; read-out: PI3Kγ Avg. IC50) [nM]
8	9500	CNC(=O)Nc1ccc2c(c1)C(=O)/C(=C/c1c(-c3nc(C(C)C)no3)[nH]c3ccc(OC)cc13)O2 [Compound 591, 1-[(2Z)-2-{[2-(3-isopropyl-1,2,4-oxadiazol-5-yl)-5-methoxy-1H-indol-3-yl]methylene}-3-oxo-2,3-dihydro-1-benzofuran-5-yl]-3-methylurea]	
58.5	545	CNC(=O)Nc1ccc2c(c1)C(=O)/C(=C/c1c[nH]c3ccc(OC)cc13)O2 [Compound 536, 1-{(2Z)-2-[(5-methoxy-1H-indol-3-yl)methylene]-3-oxo-2,3-dihydro-1-benzofuran-5-yl}-3-methylurea]	
> 10000	> 10000	CNC(=O)Nc1ccc2c(c1)C(=O)/C(=C/c1cn(C)c3cccc(-c4ccccc4)c13)O2 [Compound 528, 1-methyl-3-{(2Z)-2-[(1-methyl-4-phenyl-1H-indol-3-yl)methylene]-3-oxo-2,3-dihydro-1-benzofuran-5-yl}urea]	
163	1130	COc1ccc2[nH]cc(/C=C3\Oc4cc(O)cc(OC)c4C3=O)c2c1 [Compound 472, (2Z)-6-hydroxy-4-methoxy-2-[(5-methoxy-1H-indol-3-yl)methylene]-1-benzofuran-3(2H)-one]	
2.85	209	CNC(=O)Nc1ccc2c(c1)C(=O)/C(=C/c1c(C3CCC3)n(CCN3CCN(C)CC3)c3ccc(OC)cc13)O2 [Compound 562, 1-[(2Z)-2-({2-cyclobutyl-5-methoxy-1-[2-(4-methylpiperazin-1-yl)ethyl]-1H-indol-3-yl}methylene)-3-oxo-2,3-dihydro-1-benzofuran-5-yl]-3-methylurea]	
3.15	378	CNC(=O)Nc1ccc2c(c1)C(=O)/C(=C/c1c(C3CCCC3)n(CCN3CCN(C)CC3)c3ccc(OC)cc13)O2 [Compound 561, 1-[(2Z)-2-({2-cyclopentyl-5-methoxy-1-[2-(4-methylpiperazin-1-yl)ethyl]-1Hindol-3-yl}methylene)-3-oxo-2,3-dihydro-1-benzofuran-5-yl]-3-methylurea]	
4.5	967	CNC(=O)Nc1ccc2c(c1)C(=O)/C(=C/c1c(C)n(CCCN3CCC(O)C3)c3ccc(OC)cc13)O2 (stereo not drawn) [Compound 589, 1-[(2Z)-2-({1-[3-(3-hydroxypyrrolidin-1-yl)propyl]-5-methoxy-2-methyl-1H-indol-3-yl}methylene)-3-oxo-2,3-dihydro-1-benzofuran-5-yl]-3-methylurea]	

— US20090311217A1, “3-SUBSTITUTED-1H-INDOLE COMPOUNDS, THEIR USE AS MTOR KINASE AND PI3 KINASE INHIBITORS, AND THEIR SYNTHESES” (priority 2008, published 2009)
